Results: publication PMC11962395 (Molecular Cancer Therapeutics, 2024)

Key:
TMPRSS–ERG = test: ERG protein levels in tumors, enzalutamide-resistant VCaP model
VCaP cells = test: VCaP cell proliferation assay; format: cell-based, human; details: for antiproliferative effect with increasing R1881: 300 nmol/L bavdegalutamide or 1,000 nmol/L enzalutamide, co-treatment with increasing R1881, 5 days
PSA [1] = test: Plasma PSA levels, patient-derived xenograft TM00298; format: in vivo, mice; details: 10 mg/kg oral every day for 20 days, 16 hours after last dose
[2] = molecular target: G1–S phase transition 1 protein (Homo sapiens, UniProt P15170); test: Neomorphic substrate degradation in Ramos cells: GSPT1; format: cell-based; details: increasing concentrations, 24 hours
G1–S phase transition 1 protein, sequence (Q16531 whole entry): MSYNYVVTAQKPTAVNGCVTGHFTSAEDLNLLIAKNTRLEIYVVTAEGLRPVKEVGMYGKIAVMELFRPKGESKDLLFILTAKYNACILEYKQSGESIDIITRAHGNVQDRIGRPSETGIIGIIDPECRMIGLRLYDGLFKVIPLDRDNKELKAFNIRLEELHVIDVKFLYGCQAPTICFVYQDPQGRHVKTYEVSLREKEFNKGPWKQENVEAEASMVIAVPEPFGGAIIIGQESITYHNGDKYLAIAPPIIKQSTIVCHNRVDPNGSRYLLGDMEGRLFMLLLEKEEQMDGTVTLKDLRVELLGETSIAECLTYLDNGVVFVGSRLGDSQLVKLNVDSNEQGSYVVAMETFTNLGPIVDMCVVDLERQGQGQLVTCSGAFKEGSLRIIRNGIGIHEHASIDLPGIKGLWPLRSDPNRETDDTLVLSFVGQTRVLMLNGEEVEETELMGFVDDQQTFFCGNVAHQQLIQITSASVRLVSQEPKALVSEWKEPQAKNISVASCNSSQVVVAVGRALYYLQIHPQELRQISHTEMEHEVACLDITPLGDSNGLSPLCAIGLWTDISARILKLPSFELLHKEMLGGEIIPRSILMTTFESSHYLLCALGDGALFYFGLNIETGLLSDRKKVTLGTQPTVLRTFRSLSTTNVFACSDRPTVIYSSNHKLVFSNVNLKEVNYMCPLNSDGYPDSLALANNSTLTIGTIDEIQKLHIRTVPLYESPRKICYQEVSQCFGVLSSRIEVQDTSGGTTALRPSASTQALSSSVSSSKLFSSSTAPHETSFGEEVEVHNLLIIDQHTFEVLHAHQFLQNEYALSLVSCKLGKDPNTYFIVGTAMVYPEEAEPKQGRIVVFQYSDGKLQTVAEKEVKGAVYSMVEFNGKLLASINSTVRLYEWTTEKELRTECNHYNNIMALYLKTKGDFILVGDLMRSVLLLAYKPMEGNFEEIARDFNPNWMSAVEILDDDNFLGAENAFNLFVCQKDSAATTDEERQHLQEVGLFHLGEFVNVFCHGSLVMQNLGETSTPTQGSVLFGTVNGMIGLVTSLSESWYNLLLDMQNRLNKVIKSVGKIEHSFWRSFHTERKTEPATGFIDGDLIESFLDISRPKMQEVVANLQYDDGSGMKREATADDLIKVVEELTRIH
G1–S phase transition 1 protein, sequence (Q96SW2 whole entry, further chain): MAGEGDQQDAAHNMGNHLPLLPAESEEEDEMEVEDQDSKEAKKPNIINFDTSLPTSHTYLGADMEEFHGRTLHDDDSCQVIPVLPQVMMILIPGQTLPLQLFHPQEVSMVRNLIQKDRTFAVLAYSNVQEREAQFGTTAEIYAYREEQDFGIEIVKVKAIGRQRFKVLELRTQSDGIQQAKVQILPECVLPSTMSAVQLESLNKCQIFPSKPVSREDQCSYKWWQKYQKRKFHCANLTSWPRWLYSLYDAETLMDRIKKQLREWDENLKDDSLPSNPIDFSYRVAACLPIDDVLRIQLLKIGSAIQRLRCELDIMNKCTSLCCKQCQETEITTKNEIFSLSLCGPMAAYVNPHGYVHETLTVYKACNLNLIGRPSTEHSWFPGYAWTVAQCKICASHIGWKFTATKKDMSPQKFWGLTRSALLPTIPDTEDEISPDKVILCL
G1–S phase transition 1 protein, sequence (P15170 whole entry): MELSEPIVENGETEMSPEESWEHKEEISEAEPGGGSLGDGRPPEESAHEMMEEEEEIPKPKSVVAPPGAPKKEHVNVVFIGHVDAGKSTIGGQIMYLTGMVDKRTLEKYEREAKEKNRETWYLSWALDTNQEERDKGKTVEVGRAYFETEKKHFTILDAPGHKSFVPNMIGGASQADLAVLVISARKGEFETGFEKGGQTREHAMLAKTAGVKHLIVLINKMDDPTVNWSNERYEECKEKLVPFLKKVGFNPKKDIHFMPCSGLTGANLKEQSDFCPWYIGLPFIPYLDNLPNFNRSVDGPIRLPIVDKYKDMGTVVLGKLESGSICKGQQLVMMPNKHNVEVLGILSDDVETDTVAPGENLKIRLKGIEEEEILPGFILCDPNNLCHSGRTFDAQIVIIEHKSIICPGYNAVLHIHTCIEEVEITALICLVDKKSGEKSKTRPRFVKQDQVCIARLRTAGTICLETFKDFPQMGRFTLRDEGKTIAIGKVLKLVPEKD

VCaP xenografts = test: Tumor growth inhibition, castrated VCaP xenograft model; format: in vivo, mice
IKZF1 (Ikaros) = IKZF1 (Ikaros) (Homo sapiens, UniProt Q13422); test: Neomorphic substrate degradation in Ramos cells: IKZF1; format: cell-based; details: increasing concentrations, 24 hours
IKZF1 (Ikaros), sequence (Q96SW2 whole entry partner): as the sequence (Q96SW2 whole entry, further chain) above
IKZF1 (Ikaros), sequence (Q16531 whole entry partner): as the sequence (Q16531 whole entry) above
IKZF1 (Ikaros), sequence (Q13422 whole entry): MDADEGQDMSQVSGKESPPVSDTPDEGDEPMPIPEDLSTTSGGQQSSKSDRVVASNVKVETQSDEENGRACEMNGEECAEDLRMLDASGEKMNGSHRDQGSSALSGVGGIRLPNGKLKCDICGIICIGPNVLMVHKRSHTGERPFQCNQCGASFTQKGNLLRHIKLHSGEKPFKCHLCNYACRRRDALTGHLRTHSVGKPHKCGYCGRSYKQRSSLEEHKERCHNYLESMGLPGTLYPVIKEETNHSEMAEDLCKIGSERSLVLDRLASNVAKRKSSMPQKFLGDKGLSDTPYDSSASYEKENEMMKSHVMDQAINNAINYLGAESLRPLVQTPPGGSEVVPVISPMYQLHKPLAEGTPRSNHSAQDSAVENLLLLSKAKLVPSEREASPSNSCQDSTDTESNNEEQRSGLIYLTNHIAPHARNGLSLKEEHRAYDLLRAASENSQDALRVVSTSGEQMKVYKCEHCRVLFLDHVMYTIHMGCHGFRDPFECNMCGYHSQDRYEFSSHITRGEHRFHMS

IKZF3 (Aiolos) = IKZF3 (Aiolos) (Homo sapiens, UniProt Q9UKT9); test: Neomorphic substrate degradation in Ramos cells: IKZF3; format: cell-based; details: increasing concentrations, 24 hours
IKZF3 (Aiolos), sequence (Q96SW2 whole entry partner): as the sequence (Q96SW2 whole entry, further chain) above
IKZF3 (Aiolos), sequence (Q16531 whole entry partner): as the sequence (Q16531 whole entry) above
IKZF3 (Aiolos), sequence (Q9UKT9 whole entry): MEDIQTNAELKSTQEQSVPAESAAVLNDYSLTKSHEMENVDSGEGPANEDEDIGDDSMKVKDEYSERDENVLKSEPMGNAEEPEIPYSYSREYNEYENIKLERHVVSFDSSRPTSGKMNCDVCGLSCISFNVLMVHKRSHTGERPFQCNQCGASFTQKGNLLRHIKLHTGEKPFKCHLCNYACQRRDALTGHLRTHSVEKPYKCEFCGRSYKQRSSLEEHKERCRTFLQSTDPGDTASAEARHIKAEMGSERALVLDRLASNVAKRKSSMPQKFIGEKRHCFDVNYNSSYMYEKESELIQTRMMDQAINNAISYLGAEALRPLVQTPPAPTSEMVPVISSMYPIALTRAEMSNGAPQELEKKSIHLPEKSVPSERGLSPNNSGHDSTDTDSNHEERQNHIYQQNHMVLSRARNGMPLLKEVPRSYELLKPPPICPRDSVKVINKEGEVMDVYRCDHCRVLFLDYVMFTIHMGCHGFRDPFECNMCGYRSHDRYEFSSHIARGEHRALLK

[3] = Animal body weights during treatment in prostate cancer mouse models; format: in vivo, mice
SALL4 = SALL4 (Homo sapiens, UniProt Q96SW2+Q9UJQ4); test: SALL4 degradation in SK-N-DZ cells; format: cell-based
SALL4, sequence (Q9UJQ4 whole entry): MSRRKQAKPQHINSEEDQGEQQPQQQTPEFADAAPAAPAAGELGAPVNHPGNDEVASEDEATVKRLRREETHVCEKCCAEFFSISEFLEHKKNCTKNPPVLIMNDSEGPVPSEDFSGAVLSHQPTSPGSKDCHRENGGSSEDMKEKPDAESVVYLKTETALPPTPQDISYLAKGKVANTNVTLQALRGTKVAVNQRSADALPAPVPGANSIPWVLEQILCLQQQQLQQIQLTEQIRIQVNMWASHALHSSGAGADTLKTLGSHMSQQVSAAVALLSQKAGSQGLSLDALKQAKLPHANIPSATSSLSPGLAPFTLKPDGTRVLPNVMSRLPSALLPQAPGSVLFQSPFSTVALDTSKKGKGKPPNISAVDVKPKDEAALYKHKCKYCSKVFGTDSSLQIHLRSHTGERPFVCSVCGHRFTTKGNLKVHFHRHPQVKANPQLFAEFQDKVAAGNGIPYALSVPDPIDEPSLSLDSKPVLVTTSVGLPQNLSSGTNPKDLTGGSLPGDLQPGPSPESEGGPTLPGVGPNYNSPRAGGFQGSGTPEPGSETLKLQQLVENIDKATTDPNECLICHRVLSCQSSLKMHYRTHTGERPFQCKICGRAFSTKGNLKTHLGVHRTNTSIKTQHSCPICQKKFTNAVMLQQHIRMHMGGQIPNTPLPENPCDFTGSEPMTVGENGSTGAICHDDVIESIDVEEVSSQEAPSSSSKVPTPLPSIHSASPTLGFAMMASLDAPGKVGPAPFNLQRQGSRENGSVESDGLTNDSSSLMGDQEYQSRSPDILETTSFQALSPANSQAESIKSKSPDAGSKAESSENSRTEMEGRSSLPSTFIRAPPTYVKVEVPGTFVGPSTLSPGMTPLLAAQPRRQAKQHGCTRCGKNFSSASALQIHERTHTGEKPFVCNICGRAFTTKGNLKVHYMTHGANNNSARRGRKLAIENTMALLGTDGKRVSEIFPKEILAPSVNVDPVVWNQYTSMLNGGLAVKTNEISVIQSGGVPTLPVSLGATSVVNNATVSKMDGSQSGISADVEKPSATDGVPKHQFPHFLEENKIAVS
SALL4, sequence (Q96SW2 whole entry): as the sequence (Q96SW2 whole entry, further chain) above
SALL4, sequence (Q16531 whole entry partner): as the sequence (Q16531 whole entry) above

[4] = system: nearly 4,000 detectable proteins in VCaP cells; test: Proteomic screen in VCaP cells; format: cell-based, human; details: 10 nmol/L, 8 hours, filter >2× degradation, P <0.05
rat prostate tissue = test: Rat prostate involution study; format: in vivo, rats; details: 15 and 45 mg/kg oral every day for 10 days
[5] = system: abiraterone-resistant tumors; details: 10 mg/kg oral every day for 19 days, phase III
[6] = system: PSA synthesis in LNCaP/AR cells; test: PSA suppression assay in LNCaP/AR cells; format: cell-based; details: 48 h, read-out: IC50 (inhibition of PSA synthesis)
AR = AR degradation in CRBN-KO LNCaP and 22Rv1 cells with dox-inducible CRBN; format: cell-based
CK1α = CK1α (Homo sapiens, UniProt P48729+Q96SW2); test: Neomorphic substrate degradation in Ramos cells: CK1α; format: cell-based
CK1α, sequence (P48729 whole entry): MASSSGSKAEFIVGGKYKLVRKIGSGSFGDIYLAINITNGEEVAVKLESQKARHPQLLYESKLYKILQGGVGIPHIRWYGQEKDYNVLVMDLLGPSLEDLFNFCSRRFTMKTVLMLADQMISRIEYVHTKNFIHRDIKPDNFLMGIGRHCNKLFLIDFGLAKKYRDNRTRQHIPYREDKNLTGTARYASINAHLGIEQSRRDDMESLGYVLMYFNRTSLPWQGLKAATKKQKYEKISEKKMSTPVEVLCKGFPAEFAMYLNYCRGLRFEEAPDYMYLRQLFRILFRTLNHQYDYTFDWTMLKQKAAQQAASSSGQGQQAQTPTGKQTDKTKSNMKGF
CK1α, sequence (Q96SW2 whole entry): as the sequence (Q96SW2 whole entry, further chain) above
CK1α, sequence (Q16531 whole entry partner): as the sequence (Q16531 whole entry) above

[7] = system: patient-derived xenograft TM00298; details: TM00298 model; cited from earlier work
PSA [8] = details: TM00298 model; cited from earlier work
[9] = system: enzalutamide-resistant VCaP xenograft tumors; test: Tumor growth inhibition, enzalutamide-resistant VCaP xenograft model; format: in vivo, mice; details: 20 mg/kg oral every day for 28 days
[10] = system: human VCaP tumor xenografts; details: intact VCaP xenograft model; cited from earlier work
[11] = enzalutamide-resistant VCaP model
[12] = vs in vitro functional efficacy of 1 to 30 nmol/L

**Q.** Which results are given for `N#Cc1ccc(O[C@H]2CC[C@H](NC(=O)c3ccc(N4CCC(CN5CCN(c6cc7c(cc6F)C(=O)N(C6CCC(=O)NC6=O)C7=O)CC5)CC4)nn3)CC2)cc1Cl` (some centres unmarked) [Bavdegalutamide, N-[(1r,4r)-4-(3-chloro-4-cyanophenoxy)cyclohexyl]-6-[4-({4-[2-(2,6-dioxopiperidin-3-yl)-6-fluoro-1,3-dioxo-2,3-dihydro-1H-isoindol-5-yl]piperazin-1-yl}methyl)piperidin-1-yl]pyridazine-3-carboxamide]?
**A.** reduction in AR target gene TMPRSS–ERG in tumors (TMPRSS–ERG; 3 or 10 mg/kg bavdegalutamide): Concomitant reductions; antiproliferative effect with increasing R1881 (VCaP cells; charcoal-stripped serum): antiproliferative effects even in the presence of 1 nmol/L R1881; IC50 (VCaP cells; Homo sapiens, VCaP, 96 h, read-out: IC50 (inhibition of VCaP cell proliferation)): 20 nM; reduction of circulating PSA levels (PSA [1]): 93%; G1–S phase transition 1 protein degradation [2]: did not lead to degradation; TGI (VCaP xenografts; 1 mg/kg oral): 101%; TGI (VCaP xenografts; 3 mg/kg oral): 109%; IKZF1 (Ikaros) degradation (IKZF1 (Ikaros)): did not lead to degradation; IKZF3 (Aiolos) degradation (IKZF3 (Aiolos)): did not lead to degradation; body weights ([3]; castrated VCaP xenograft model): Body weights were maintained; body weights [3, 11]: Body weights were maintained; SALL4 degradation (SALL4; SK-N-DZ cells, 1,000 nmol/L, 24 hours): modestly degraded; window between AR and SALL4 modulation (SALL4; [12]): ≥ 10 ×; proteins degraded in proteomic screen [4]: degradation of only AR; rat prostate involution vs enzalutamide 100 mg/kg (rat prostate tissue): significantly higher activity than enzalutamide; volume of abiraterone-resistant tumors [5]: reduced the volume of these abiraterone-resistant tumors; IC50 [6]: 10 nM; cereblon dependence of AR degradation (AR): cereblon dependent; CK1α degradation (CK1α; Ramos cells, 300 to 1,000 nmol/L, 24 hours): only modest degradation; window between AR and CK1α modulation (CK1α; [12]): ≥ 10 ×

**Q.** Which “reduction in AR target gene TMPRSS–ERG in tumors” value (TMPRSS–ERG; 20 mg/kg enzalutamide) does the source give for `CNC(=O)c1ccc(N2C(=S)N(c3ccc(C#N)c(C(F)(F)F)c3)C(=O)C2(C)C)cc1F` [Enzalutamide, reference compound] here?
**A.** this effect did not occur

**Q.** What about the “antiproliferative effect with increasing R1881” value (VCaP cells; charcoal-stripped serum) of the same molecule?
**A.** antiproliferative only at R1881 concentrations <0.1 nmol/L

**Q.** And the “effect on tumor growth” value [7]?
**A.** without affecting tumor growth

**Q.** And the “reduction of PSA levels” value (PSA [8])?
**A.** approximately 50%

**Q.** And the TGI [9]?
**A.** TGI was not observed

**Q.** What about the “effect on tumor growth” value [10] of the same molecule?
**A.** little to no effect on tumor growth

**Q.** And the body weights ([3]; castrated VCaP xenograft model)?
**A.** Body weights were maintained

**Q.** And the body weights [3, 11]?
**A.** Body weights were maintained

**Q.** With `C[C@]1(O)CC[C@H]2[C@@H]3CCC4=CC(=O)CCC4=C3C=C[C@@]21C` [R1881, reference compound] as the molecule, how does the “effect of R1881 alone on proliferation” value (VCaP cells; VCaP cells, charcoal-stripped serum) read?
**A.** increased the proliferation of VCaP cells
